Assay results published in patent publication US8835447B2, “Method for treating androgen receptor positive cancers” (priority 2009, dated 2014).

How the values were obtained:
[1] = test system: CWR22R cells; experiment: Cell cycle distribution by propidium iodide staining; type: cell-based, human; details: propidium iodide FACS
Protocol: Analysis of cell cycle distribution was based on staining of DNA content by propidium iodide. 10^5 cells were removed from culture dishes using trypsin, washed with PBS and resuspended in 300 μl 3% BSA in PBS, followed by addition of […] 70% ethanol. Cells were kept at −20° C. for several hours and then stained with 10 μg/ml propidium iodide in the presence of 30 μg/ml RNase A for 2 hrs at 37° C. DNA content was assessed using a FACS Calibur instrument and CellQuest software (Becton Dickinson, Franklin Lakes, N.J.).
To test this possibility, we assessed the cell cycle distribution of CWR22R cells treated with both categories of compounds. […] Therefore, different subsets of compounds inhibiting AR-dependent transcription in androgen-independent PCa cells cause either growth arrest or apoptosis in these cells. Whether a compound causes growth arrest or apoptosis is not determined by the potency of the compound as an inhibitor of AR-dependent transcription (i.e., FIG. 2B).

[2] = Microsomal stability; type: in vitro ADME; details: 1 hour incubation with rat microsomes
Protocol: Five hit compounds, representing both the ARTIS and ARTIK categories (c6, c11, c17, c52 and c85), were selected for in vivo tests based on all of the previous assays. Compound c5 was rejected due to very low microsomal stability (<5% after 1 hour incubation with rat microsomes). The toxicity of the compounds was evaluated in a dose escalation assay in which male NIH Swiss mice (n=4) received three sequential intraperitoneal (i.p.) injections of each compound delivered in 3 day intervals. The first dose was 20-fold higher than the in vitro IC50 (20×IC50) for the compound in CWR22R cells recalculated based on mouse weight (see Example 1) and the second and third doses were 50×IC50 and 100×IC50, respectively. On the day after the last injection, half of the mice in each group were sacrificed for gross pathology examination and collection of blood for serum biochemistry assays, which include total protein, glucose, bilirubin, and creatinine levels, activity of liver enzymes, and ion concentrations. The remaining mice were sacrificed and evaluated similarly 7 days after the last compound injection. […] A minor decrease in serum glucose concentration (70-80% of control) was observed on the day after the last compound injection in almost all mice, but glucose levels were normal a week later (data not shown). […]

[3] = test system: CWR22R tumors; experiment: CWR22R xenograft model in nude mice; type: in vivo, mouse; details: for CWR22R tumor growth: five daily i.v. injections, c52 at 18 mg/kg/day
From the text: FIGS. 6A and 6B provide data showing anti-tumor activity of the selected hits in mouse models of androgen-independent PCa. FIG. 6A provides a graphical representation of data obtained from i.p. injection of the listed compounds or DMSO vehicle into nude mice carrying subcutaneous (s.c.) C4-2 tumors. Six daily injections were given starting when tumors were around 100 mm3 in size. There were 4-5 mice per group with two tumors per mouse. Asterisks (*) and number signs (#) are placed under the means of measurement in the c6 and c11 groups respectively which are statistically different from the control group by ANOVA test (>99%) B. C52 (9 mg/kg or 18 mg/kg) or DMSO vehicle was injected into the tail vein of nude mice carrying s.c. CWR22R tumors. Five daily injections were given starting when tumors were around 40 mm3 in size. There were 10 mice per group with one tumor per mouse. Asterisks (*) are placed under the means of measurement which are statistically different from the control group by ANOVA test (>99%). Error bars in both FIGS. 6A and B—standard deviation between the size of tumors within a given treatment group.
Testing of the anti-tumor effect of compounds in mice was done according to an IACUC-approved protocol in 8 week old male athymic nude mice from Harlan (Indianapolis, Ind.). For the C4-2 xenograft model, 10^6 C4-2 cells were injected subcutaneously (s.c.) in 2 sites of each mouse in 50% matrigel (BD Biosciences, Bradford, Mass.) in PBS. Upon development of visible tumors, they were measured using digital caliper. Tumor volume was calculated according to the formula: […]. Mice were injected with compounds i.p. daily for 6 days starting on the day when at least one tumor per mouse reached 100 mm^3 in size. Five mice per group were used. For the CWR22R xenograft model, CWR22R cells were inoculated (10^5 cells per inoculum) in 50% matrigel, one site per mouse. Treatment was started when the tumor grew to a size of at least 25 mm^3. Compounds were diluted in captisol (CyDex, Lenexa, Kans.) and delivered intravenously (to reduce “first pass” liver effect) once a day for 5 days. Ten mice per group were used. Mice were monitored daily and tumors were measured every other day. Mice were euthanized according to institutional regulations when the size of tumor reached 1000 mm^3. Comparison of the tumor growth in control and treated mice was done using ANOVA test.
ARTIK compounds, c52 and c85, were also tested in the CWR22R model.

In the case of `CCCn1c2ccccc2c2cc(C(C)=O)ccc21` [c52], the “cells with sub-G1 DNA content (apoptotic)” value [1] is reported as “appearance of cells with sub-G1 DNA content”, the “microsomal stability, compound left” value [2] is reported as 17% and the “mice in which tumors completely disappeared” value ([3]; among 10 mice, 18 mg/kg/day) is reported as 2 mice. For the same compound, the “mice in which tumors did not grow in size” value ([3]; among 10 mice, 18 mg/kg/day) was 5 mice, the “mice in which tumors regressed” value ([3]; among 10 mice, 18 mg/kg/day) was 1 mouse and the adverse side effects ([3]; c52 18 mg/kg/day i.v., 5 days) was “without any noticeable adverse side effects”. For the same compound, the CWR22R tumor growth ([3]; 18 mg/kg/day) was “suppressed growth” and the CWR22R tumor growth ([3]; listed as C52, 18 mg/kg/day) was “effective”.
